# Laboratory results from patent US20250032581A1, “COMPOSITIONS AND ARTICLES COMPRISING AN ADNF POLYPEPTIDE” (RAMOT AT TEL-AVIV UNIVERSITY LTD., priority 2021, published 2025).
# How the values were obtained:
# [1] = test system: Tyr mice; test: CatWalk gait analysis; type: in vivo, mouse
# Method: Animals—Animals were housed under a 12-hour light/dark cycle, with food and water ad-libitum. Mouse pups were subcutaneously administrated with NAP [having an amino acid sequence NAPVSIPQ (SEQ ID NO: 2), 25 μg NAP/1 ml saline] as described (8, 12). At 21 days of age mice were administered daily intranasal NAP in vehicle solution (“DD”—7.5 mg/ml of NaCl, 1.7 mg/ml of citric acid, 3 mg/ml of disodium phosphate dihydrate, and 0.2 mg/ml of 50% benzalkonium chloride solution) (0.5 μg NAP/5p1 DD) (8, 9, 12, and U.S. Pat. No. 10,912,819 to Gozes). These mice continued to behavioral analysis as described hereinbelow. The noninvasive intranasal route was chosen as these experiments required daily handling and administration. Age (weeks) of mice during behavioral experiments (mean±SEM) was as follows: Catwalk—9.23±0.15, grooming—10±0.15, social approach—10.5±0.12, odor-discrimination—12.12±0.13, hanging-wire—13±0.14, hotplate—13.18±0.13. Group size was determined following previous experiments (12). Pups were randomly allocated to either the NAP or DD group according to sex and genotype. All procedures involving animals were conducted under the supervision and approval of the institutional animal care and use committee of Tel Aviv University and the Israeli Ministry of Health.
# Catwalk—Was performed as previously described (12).
# Briefly, for ear twitch reflex, a cotton tip was gently brushed against the tip of the ear three times, between postnatal days 7-15 or until the pup responded correctly for two consecutive days. For air righting reflex, the pup was held up-side down and released ˜10.5 cm above the cage, containing 5 cm of shavings. The test was performed between postnatal days 8-21 or until the pup landed on the shavings with all four paws, for two consecutive days. For surface righting reflex, pups were placed on their backs on a level surface, the test was performed between postnatal days 1-13 until the pups was able to right itself with all four paws on the surface in under a second for two consecutive days. For eye opening, mice were observed daily until both eyes were open (eyelids separated completely). For auditory startle, the pup was placed on a level surface and the experimenter clapped loudly twice until a visible startle response was evident for 2 consecutive days. The test was performed between days 7-18. For cliff aversion, pups were placed on the edge of a small box (approx. 4 cm in height) with both paws protruding over the edge of the box. Pups were allowed 30 sec to avoid the cliff and move themselves backwards. Test was performed between day 1-14 until the pup avoided the cliff in under 30 sec for two consecutive days^9. For the rooting reflex, a cotton tip was gently brushed against the sides of the pup's mouth until the pup moved its head to the direction of the stroke. Both sides were tested twice. […] All tests were conducted between 10 AM-4 PM. For the first 5 postnatal days, each pup was put under a single 60-watt bulb during testing to assure the pups' warmth. • Novel object recognition: Briefly, the open field test was used for the first day of habituation since both tests are conducted in the same arena. The following day animals underwent another habituation to the arena (5 mins). As described, the test included two consecutive days of habituation and the experimental days which consisted of the three phases. […]
# [2] = test system: Tyr mice; test: Ultrasonic vocalizations (USV) and syntax analysis of P8 pups (DeepSqueak); type: in vivo, mouse
# Excerpt: The Intensity parameter is used to assess the effects of neuropathic pain, including mechanical allodynia. Max Contact Mean Intensity is the mean Intensity of a paw at Max Contact. Print length is the length (horizontal direction) of the complete print. The complete print is the sum of all contacts with the glass plate, as if the animal's paw would have been inked. Print width is the width (vertical direction) of the complete paw. Print area is the surface area of the complete print. Max Intensity is the maximum Intensity of the complete paw. Mean intensity is the mean Intensity of the complete paw. • USV: On P8, each pup was separated from the dam and placed in an empty cage for 6 minutes, in a quiet room and was recorded using the M500-384 USB Ultrasound Microphone (Petterson, Sweden). Pups were distinguished from one another using the tattoos listed above. After 6 minutes pups were reunited with its dam. Data were analyzed using DeepSqueak. Data were loaded onto DeepSqueak, frequencies between 40-70 kHz were analyzed using the mouse call network V2. Calls were denoised using post hoc denoising network. For syntax analysis, Syntax was classified using Wright K means network. Syntax transition probability charts were generated using DeepSqueak and Matlab. Further USV experiments were performed on P8 pups as previously described (12) with slight modifications.
# [3] = test system: Tyr-GFP mouse model; test: Dendritic spine quantitation in Tyr-GFP mice; type: in vivo
# Method: Spine quantitation—For determination of dendritic spine morphology, the Tyr-GFP mouse model was used and generated as described(12). 1.5-2-month-old Tyr-GFP-mice were treated for 9 consecutive days with either intraperitoneal NAP injection (0.4 μg/0.1 ml saline) or with 0.1 ml saline. On day 9, mice were perfused, and brains were subjected to immunohistochemistry and imaging (12).
# [4] = test system: Tyr mice; test: Visual evoked potentials (VEP); type: in vivo, mouse; design: key to NAP efficacy: visual evoked potential/axonal transport: corrections by NAP treatment (+)
# Method: VEP—5.72±0.52-week-old male mice were used for VEP measurements. Animals were treated for 3 days with 0.1 ml S.C saline, recorded, and then followed by 4 daily S.C doses of either 1 μg NAP (in 0.1 ml saline) or 0.1 ml saline followed by another VEP recording.
# [5] = test system: BTBR mouse; test: Social recognition in the BTBR mouse; type: in vivo
# [6] = cited from earlier work
smiles,measurement,setting,value
"CC[C@H](C)[C@H](NC(=O)[C@H](CO)NC(=O)[C@@H](NC(=O)[C@@H]1CCCN1C(=O)[C@H](C)NC(=O)[C@@H](N)CC(N)=O)C(C)C)C(=O)N1CCC[C@H]1C(=O)N[C@@H](CCC(N)=O)C(=O)O [NAP, NAPVSIPQ]",gait,"[1]; WT mice, data not shown",No major NAP effect was observed in WT mice
same,gait: intensity parameters,[1]; female Tyr mice,significant NAP correction
same,gait: swing speed and swing duration,[1]; female Tyr mice,ameliorated by NAP
same,gait: front base of support,[1]; male Tyr mice,NAP correcting this phenotype in males
same,gait: print length and area,"[1]; male Tyr mice, daily intranasal NAP",significant NAP recovery
same,total USVs,[2]; Tyr female and male P8 pups,no NAP effects
same,syntax,"[2]; WT pups, data not shown",minor varied impact on WT pups
same,"syntax transition probabilities, Xi square analysis Tyr vs. Tyr NAP","[2]; females, p<0.001",significant improvement with NAP treatment
same,"syntax transition probabilities, Xi square analysis Tyr vs. Tyr NAP","[2]; males, p=0.027",same significant changes
same,"spine density, motor cortex","[3]; WT females, data not shown",no treatment effect was found on WT females
same,PSD95 volume in the hippocampus,[3]; female Tyr mice,complete resolution upon NAP treatment
same,"mushroom spine density, motor cortex",[3]; female Tyr mice,"NAP significantly affecting the larger, functionally stronger, mushroom shaped spines"
same,"increase in spine density, motor cortex L5 layer","[3]; female Tyr mice, i.p. NAP, 9 days",~17%
same,VEP P3 AUC,[4]; Tyr males,significant NAP effect seen in the 300 and 3000 mcd intensities
same,NAP efficacy: visual evoked potential/axonal transport,[4]; Tyr mouse (first symbol),+/+
same,social recognition,[5],"preference of the mouse, rather than the cup=object chamber"
same,bioavailability / cell penetration,[6],bioavailable by endocytosis
